In ChEMBL document CHEMBL3608259, “Carbonic Anhydrase Glycoinhibitors belonging to the Aminoxysulfonamide Series” (ACS Med Chem Lett, 2015) one finds Ki data, which are given here for twelve compounds.

The target of this assay is Carbonic anhydrase 9 (Homo sapiens, UniProt Q16790).
Description: Inhibition of human recombinant carbonic anhydrase-9 catalytic domain by stopped-flow CO2 hydration assay
By Ki is commonly meant the dissociation constant of the complex between target and ligand, obtained from inhibition or displacement. A higher Ki goes with a looser hold on the target. The compound `NOS(=O)(=O)NC1C=C[C@@H](O)[C@@H](CO)O1` (mixture of isomers) gave a Ki of 61 nM. In other words, the double-digit nanomolar range.

In turn, `NOS(=O)(=O)NC(=O)OCc1ccccc1` showed an inhibition constant (Ki) of 77 nM.

Regarding `NOS(=O)(=O)NC1C=C[C@@H](O)CO1` (mixture of isomers), the affinity, expressed as Ki, was 74 nM.

In turn, `NOS(=O)(=O)NC1C=C[C@H](O)CO1` (mixture of isomers) registered a Ki of 91 nM.

Take `CC(=O)OC[C@H]1OC(NS(=O)(=O)ON)C=C[C@H]1OC(C)=O` (mixture of isomers): affinity was put at a Ki of 75 nM. This Ki and that of the compound before are within 1.5-fold of each other.

`CC(=O)O[C@@H]1C=CC(NS(=O)(=O)ON)OC1` (mixture of isomers) registered a Ki of 86 nM. This Ki and that of the compound before are within 1.5-fold of each other.

`CC(=O)OC[C@H]1OC(NS(=O)(=O)ON)C=C[C@@H]1OC(C)=O` (mixture of isomers) showed a Ki of 90 nM.

Compound `NOS(=O)(=O)NC1C=C[C@H](O)[C@@H](CO)O1` (mixture of isomers) displayed a Ki of 85 nM.

The compound `NS(=O)(=O)ONC(=O)OCc1ccccc1` gave a Ki of 57 nM.

In turn, `CC(=O)O[C@@H]1C=CC(NS(=O)(=O)ON)O[C@H]1C` (mixture of isomers) registered a Ki of 86 nM. Compared with the last compound, the Ki is about 1.5-fold higher.

As to `C[C@@H]1OC(NS(=O)(=O)ON)C=C[C@H]1O` (mixture of isomers), the Ki was 61 nM.

Turning to `CC(=O)O[C@H]1C=CC(NS(=O)(=O)ON)OC1` (mixture of isomers), the Ki was found to be 75 nM.
